Patent publication US20030060469A1, “Use of substances that act as cascade inhibitors of the raf/mek/erk signal cascade, for producing a medicament to treat dna and rna viruses” (priority 2000, published 2003)
Like-named read-outs stand apart in the source and are kept apart here.

Experiments:
[1] = mouse model; oral administration; up to a cumulating dose of 6 g/kg body weight; cited from earlier work
MDCK cells = details: concentrations corresponding to the infection test (up to 50 μM), macroscopic examination and propidium iodide staining
[2] = test system: influenza A virus stem WSN-HK
[3] = test system: Borna disease virus (BDV)

Structure (SMILES) | signs of toxicity [1] | cytotoxic effect on the cells (MDCK cells) | reduction of the number of newly generated infectious virus particles in the cell culture medium [2] | virus foci (spreading of BDV infection) ([3]; administration of 6 μM, compared to untreated infectious reference cells) | virus foci (spreading of BDV infection) ([3]; administration of 12.5 μM) | virus foci (spreading of BDV infection) ([3]; one-time administration of 25 μM, cultivation time of 7 days)
O=C(NOCC1CC1)c1ccc(F)c(F)c1Nc1ccc(I)cc1Cl [PD184352, 2-(2-chloro-4-iodo-phenylamino)-N-cyclopropyl-methoxy-3,4-difluoro-benzamide] | without showing any significant signs of toxicity |  |  |  |  | 
N#CC(=C(N)Sc1ccccc1N)C(C#N)=C(N)Sc1ccccc1N [U0126, 1,4-diamino-2,3-dicyano-1,4-bis[2-aminophenylthio]butadiene] |  | neither solvent nor inhibitor have a significant cytotoxic effect on the cells | approx. 80% | no difference of the virus foci | the effect is not clear anymore | no virus foci are visible
